Test system: Artemia
Assay: Toxicity against brine shrimp
Format: organism-based
Conditions: in vivo

Q: `COC(=O)C[C@@H]1C(C(=O)O[C@H]2C[C@@H]3C(C(=O)OC)=CO[C@@H](O)[C@@H]3[C@H]2C)=CO[C@@H](C)[C@H]1C=O` [FLORIBUNDAL] was tested. Which Activity did it give?
A: Non-toxic
